The values that follow come from US11883491B2, “Compositions and methods for prevention and treatment of hearing loss” (ST. JUDE CHILDREN'S RESEARCH HOSPITAL, priority 2017, dated 2024).

For data set [1], the system named is FVB mice. The data set is described as follows: Toxicity (median lethal dose) in neonatal mice. The data set is classed as in vivo, mouse. Conditions: postnatal day 1 (P1) FVB mice, intraperitoneal (IP) injection; estimated. As to the method: (§1) To further evaluate the use of an inhibitor of EGFR signaling in HC regeneration, the toxicity of AG1478 in neonatal and adult mice was assessed.

The subject of data set [2] is neonatal mouse cochlear explants. In words: Inhibitor alone: proliferation and differentiation of endogenous SCs and HCs in neonatal cochlear explants. The data set is classed as cell-based. The following applies: inhibitor by itself, after 7 days. An excerpt: Atoh1, a transcription factor, can convert non-sensory supporting cells (SCs) to hair cells (HCs) in neonatal and juvenile mammalian cochleae (Izumikawa, et al. (2005) Nature Med. 11:271-6; Kelly, et al. (2012) J. Neurosci. 32:6699-710; Liu, et al. (2012) J. Neurosci. 32:6600-10). Ectopic expression of Atoh1 has been approved for clinical trials as a gene therapy. However, Atoh1-induced HC conversion is inefficient (<17%), incomplete (lacking mature HC markers), and age-dependent (no response in adult cochlea) (Izumikawa, et al. (2008) Hearing Res. 240:52-6; Liu, et al. (2012) J. Neurosci. 32:6600-10). Using RNA-seq analysis to compare the transcriptome of SCs, endogenous outer HCs (OHCS), and Atoh1-induced HCs (cHCs) in adult mouse cochleae, it was observed that the epidermal growth factor receptor (EGFR) signaling is enriched in SCs and cHCs using gene set enrichment analysis (GSEA). To validate the role of EGFR pathway ex vivo, neonatal mouse cochlear explants were treated with a potent EGFR inhibitor (AG1478). […] In addition, inhibitors targeting proteins downstream of EGFR signaling were tested including WP1066 (STAT3 inhibitor), LY 294002 (PI3K inhibitor), U0126 (MEK inhibitor), and U73122 (PLC inhibitor) at various doses above their respective EC50 values. […]

Data set [3] relates to FVB mice. The data set is described as follows: Auditory brainstem response thresholds after transtympanic injection in adult mice. The data set is classed as in vivo, mouse. Conditions: adult (>P21) FVB mice, 10 μg transtympanic (TT) injection, 7 days after. As to the method: as §1
The test system of data set [4] is neonatal mouse cochlear explants. In words: Atoh1-induced hair cell conversion in Atoh1-transfected neonatal mouse cochlear explants. Type of data set: cell-based.
Experimental: Representative images show the immunostaining of cochlear explants transfected with Atoh1-IRES-GFP and treated with vehicle (FIGS. 1A and 1C) or 100 nM AG1478 (FIGS. 1B and 1D). Expression of hair cell marker Myo6 (↑) and Atoh1-transfected cells (GFP, ? ) are shown.
Atoh1 is transfected (O/E) in all conditions.
Data set [5] concerns mouse cochlear explants. Conditions: for protection against cisplatin-induced hair cell loss: cochlear explants, screen of 75 kinase inhibitors.
Experimental: (§2) A screen of a library composed of 75 kinase inhibitors was conducted to identify inhibitors that protect against cisplatin-induced hair cell loss.
The test system of data set [6] is HEI-OC1 cells. The data set is described as follows: Protection against cisplatin-induced Caspase-3/7 activity / cell death in HEI-OC1 cells. The data set is classed as cell-based, mouse. Conditions: for protection against cisplatin-induced cell death: HEI-OC1, screen of 75 kinase inhibitors; for IC50: Mus musculus, HEI-OC1 cells.
Experimental: as §2
For data set [7], the system named is mouse cochlear explants. The data set is described as follows: tissue or blood. Conditions: read-out: IC50, protection against cisplatin-induced hair cell loss.
Experimental: as §2
Data set [8] has as its system HEI-OC1 cells. Conditions: CELLTITER-GLO. Background: In ATP-based viability assays light output follows the ATP content of the culture.
Experimental: as §2

Regarding `COc1cc2ncnc(Nc3cccc(Cl)c3)c2cc1OC` [AG1478, AG 1478], in the data set with FVB mice [1], the “median lethal dose (LD50)” value is reported as 30 mg/kg. The “impact on the proliferation and differentiation of endogenous SCs and HCs” value in data set [2] was “no impact”. Moreover, the “changes in auditory brainstem response (ABR) thresholds” value in the data set on FVB mice [3] was “no significant changes”. For the same molecule, the “Atoh1-induced hair cell conversion (immunostaining Myo6/GFP)” value in data set [4] (100 nM AG1478 vs vehicle, Atoh1-IRES-GFP transfected explants) is “increased”. In data set [4] (AG1478 combined with Atoh1, from 24.7% without inhibitor, FIGS. 1A-1D), the “Atoh1-induced HC conversion from explant SCs” value is given as 80.6%.

Turning to `CC1(COc2ccc3c(c2)ncn3-c2ccc3cccc(N4CCC(N)CC4)c3n2)COC1` [CRENOLANIB, Crenolanib], the “protection against cisplatin-induced hair cell loss” value with mouse cochlear explants [5] is reported as “potently protected”. Also, the “protection against cisplatin-induced cell death” value with HEI-OC1 cells [6] is given as “potently protected”.

For the molecule `CC(C)(C)c1nc(-c2cccc(NS(=O)(=O)c3c(F)cccc3F)c2F)c(-c2ccnc(N)n2)s1` [GSK2118436A, dabrafenib], the “protection against cisplatin-induced hair cell loss” value in the data set on mouse cochlear explants [5] is “potently protected”. The “protection against cisplatin-induced cell death” value in the data set with HEI-OC1 cells [6] is “potently protected”.

Consider `FC(F)(F)c1ccc(/C=C/c2nc(COc3ccc(CCCCn4ccnn4)cc3)co2)cc1` [MUBRITINIB, Mubritinib], for which, in the data set with mouse cochlear explants [5], the “protection against cisplatin-induced hair cell loss” value was “potently protected”. The values for the LD50 in the data set with mouse cochlear explants [5] (mouse cochlear explants) and in the data set with HEI-OC1 cells [8] were greater than 500 nM and greater than 55 µM, respectively. Besides, the “Therapeutic Index” value with mouse cochlear explants [5] (mouse cochlear explants, LD50/IC50) was greater than 200. The IC50 with mouse cochlear explants [7] is 2.5 nM; in the data set with HEI-OC1 cells [6] it was 4 nM. Besides, in the data set with HEI-OC1 cells [6], the “protection against cisplatin-induced cell death” value is on record as “potently protected”.

`CCOc1cc2ncc(C#N)c(Nc3ccc(F)c(Cl)c3)c2cc1NC(=O)/C=C/CN(C)C` [PELITINIB, Pelitinib]: in the data set with mouse cochlear explants [5] (1 hour pre-incubation, N=3), the “protection of outer hair cells against cisplatin-induced hair cell loss” value was found to be 49%. In the data set on HEI-OC1 cells [6] (cisplatin-Glo 3/7), this molecule came in with a half-maximal inhibitory concentration (IC50) of 600 nM.

On to `O=C(Nc1cccc(Cl)c1)Nc1ncc(CCNc2ncnc3ccsc23)s1` [SNS314], for which, in the data set on mouse cochlear explants [5], the “protection against cisplatin-induced hair cell loss” value is on record as “potently protected”. Also, in the data set with HEI-OC1 cells [6], the “protection against cisplatin-induced cell death” value is reported as “potently protected”.

For orientation: IC50 means the midpoint of a concentration-inhibition curve.
